Values joined by “and” are separate entries in the source; they are usually repeats but may differ in a detail not shown here. Identical values can stand only once. Like-named read-outs stand apart in the source and are kept apart here.
Assays:
[1] = Pharmacokinetics in ICR mice after intravenous and intragastric administration; format: in vivo; conditions: for MRT last: read-out: MRT(0-t); for MRT inf: read-out: MRT(0-∞); for Vd: read-out: Vz; for bioavailability: PO 5 mg/kg vs IV 2 mg/kg, from mean values, read-out: F* (bioavailability)
In short: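 Plasma concentration-time data, quantified by LC-MS/MS with a 1 ng/mL lower limit, gave AUC, t1/2, MRT, Cmax, Tmax, bioavailability, Vz and clearance. Overnight-fasted male ICR mice (three per route) received 2 mg/kg intravenously or 5 mg/kg intragastrically.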

[2] = test system: human osteosarcoma cell line SJSA-1; assay: Inhibition of proliferation of human osteosarcoma cell line SJSA-1 (DAPI staining, In Cell Analyzer); conditions: Homo sapiens, SJSA-1, 72 h, read-out: IC50 (nM), inhibitory activity on proliferation of human osteosarcoma cell line SJSA-1, SJSA-1, incubated 72 h
MDM2 = target: T1, MDM2 (Homo sapiens, UniProt Q00987); assay: Inhibition test of MDM2-P53 (GST-MDM2, Biotin-P53, Anti-GST-Tb, SA-XL665); format: binding
T1 construct: made in house
In short: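 Binding was measured by TR-FRET with GST-MDM2 at 4 nM final in PBS with 0.1% BSA, 5 mM DTT and 1 mM AEBSF. Compounds were tested as twelve-point 5-fold dilutions and incubated with the detection mix for 90 min at 25 °C with shaking before plate-reader reading and curve fitting.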

[3] = ICR mice, IV 2 mg/kg, individual animal, 2 mg/kg
[4] = ICR mice, PO 5 mg/kg, individual animal, 5 mg/kg
[5] = male, ICR, mouse, plasma, iv, 2 mg/kg, ICR mice, IV 2 mg/kg, individual animal
[6] = male, ICR, mouse, plasma, iv, 2 mg/kg, ICR mice, IV 2 mg/kg, individual animal, read-out: Cmax
[7] = male, ICR, mouse, plasma, iv, 2 mg/kg, ICR mice, IV 2 mg/kg, individual animal, read-out: Tmax
[8] = male, ICR, mouse, plasma, iv, 2 mg/kg, ICR mice, IV 2 mg/kg, mean of 3 animals
[9] = male, ICR, mouse, plasma, iv, 2 mg/kg, ICR mice, IV 2 mg/kg, mean of 3 animals, read-out: AUC(0-t)
[10] = male, ICR, mouse, plasma, iv, 2 mg/kg, ICR mice, IV 2 mg/kg, mean of 3 animals, read-out: Cmax
[11] = male, ICR, mouse, plasma, iv, 2 mg/kg, ICR mice, IV 2 mg/kg, mean of 3 animals, read-out: Tmax
[12] = male, ICR, mouse, plasma, iv, 2 mg/kg, ICR mice, IV 2 mg/kg, mean of 3 animals, read-out: t1/2 (converted)
[13] = male, ICR, mouse, plasma, po, 5 mg/kg, ICR mice, PO 5 mg/kg, individual animal
[14] = male, ICR, mouse, plasma, po, 5 mg/kg, ICR mice, PO 5 mg/kg, individual animal, read-out: Tmax
[15] = male, ICR, mouse, plasma, po, 5 mg/kg, ICR mice, PO 5 mg/kg, individual animal, read-out: t1/2 (converted)
[16] = male, ICR, mouse, plasma, po, 5 mg/kg, ICR mice, PO 5 mg/kg, mean of 3 animals
[17] = male, ICR, mouse, plasma, po, 5 mg/kg, ICR mice, PO 5 mg/kg, mean of 3 animals, read-out: AUC(0-t)
[18] = male, ICR, mouse, plasma, po, 5 mg/kg, ICR mice, PO 5 mg/kg, mean of 3 animals, read-out: Cmax
[19] = male, ICR, mouse, plasma, po, 5 mg/kg, ICR mice, PO 5 mg/kg, mean of 3 animals, read-out: Tmax
[20] = male, ICR, mouse, plasma, po, 5 mg/kg, ICR mice, PO 5 mg/kg, mean of 3 animals, read-out: t1/2 (converted)
[21] = male, ICR, mouse, plasma, po, 5 mg/kg, oral intragastric administration 5 mg/kg, read-out: AUC0-t

T1 sequence (Q00987 whole entry): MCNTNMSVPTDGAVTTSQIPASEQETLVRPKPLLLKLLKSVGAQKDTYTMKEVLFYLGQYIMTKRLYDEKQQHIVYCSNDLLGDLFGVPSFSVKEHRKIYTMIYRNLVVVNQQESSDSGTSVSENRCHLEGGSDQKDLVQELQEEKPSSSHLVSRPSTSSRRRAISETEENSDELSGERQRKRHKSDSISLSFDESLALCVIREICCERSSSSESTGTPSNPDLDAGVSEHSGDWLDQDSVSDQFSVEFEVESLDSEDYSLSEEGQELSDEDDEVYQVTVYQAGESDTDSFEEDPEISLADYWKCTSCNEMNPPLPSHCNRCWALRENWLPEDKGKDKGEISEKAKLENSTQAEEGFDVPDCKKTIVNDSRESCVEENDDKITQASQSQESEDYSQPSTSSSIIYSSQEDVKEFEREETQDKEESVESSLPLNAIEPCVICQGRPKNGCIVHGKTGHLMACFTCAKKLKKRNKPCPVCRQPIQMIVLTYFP

COc1cc(OC)c(-c2nc3c(n2C(C)C)[C@@]2(C(=O)Nc4cc(Cl)ccc42)N(c2cc(Cl)ccc2F)C3=O)cn1 [Example S-133, (S)-6-chloro-5′-(5-chloro-2-fluorophenyl)-2′-(4,6-dimethoxypyridin-3-yl)-3′-isopropyl-3′H-spiro[dihydroindole-3,4′-pyrrolo[3,4-d]imidazole]-2,6′(5′H)-dione]
AUC(0-t) [1, 3]: 3187.22 ng·h/mL and 2904.29 ng·h/mL
AUC(0-∞) [1, 3]: 3247.82 ng·h/mL and 3022.24 ng·h/mL
CL [1, 3]: 10.26 mL/min/kg and 11.03 mL/min/kg
Cmax [1, 3]: 2521.09 ng/mL and 2055.95 ng/mL
MRT(0-t) [1, 3]: 1.05 h and 1.20 h
MRT(0-∞) [1, 3]: 1.17 h and 1.45 h
Vz [1, 3]: 1.01 L/kg and 1.16 L/kg
t1/2 [1, 3]: 1.13 h and 1.22 h
AUC(0-t) [1, 4]: 4282.62 ng·h/mL and 5953.82 ng·h/mL
AUC(0-∞) [1, 4]: 4314.80 ng·h/mL and 5994.87 ng·h/mL
Cmax [1, 4]: 1489.30 ng/mL and 2195.02 ng/mL
MRT(0-t) [1, 4]: 2.17 h and 2.05 h
MRT(0-∞) [1, 4]: 2.22 h and 2.10 h
t1/2 [1, 4]: 1.05 h and 1.04 h
AUC(0-inf) [1, 5]: 4700 ng·h/mL
clearance [1, 5]: 7.09 mL/min/kg
AUC(0-t) ([1]; male, ICR, mouse, plasma, iv, 2 mg/kg, ICR mice, IV 2 mg/kg, individual animal, read-out: AUC(0-t)): 4600 ng·h/mL
Cmax [1, 6]: 2980 ng/mL
MRT last [1, 5]: 1.18 h
MRT inf [1, 5]: 1.31 h
Tmax [1, 7]: 0.08 h
Vd [1, 5]: 0.66 L/kg
half-life ([1]; male, ICR, mouse, plasma, iv, 2 mg/kg, ICR mice, IV 2 mg/kg, individual animal, read-out: t1/2 (converted)): 1.07 h
AUC(0-inf) [1, 8]: 3660 ng·h/mL
clearance [1, 8]: 9.46 mL/min/kg
AUC(0-t) [1, 9]: 3560 ng·h/mL
Cmax [1, 10]: 2520 ng/mL
MRT last [1, 8]: 1.14 h
MRT inf [1, 8]: 1.31 h
Tmax [1, 11]: 0.083 h
Vd [1, 8]: 0.94 L/kg
half-life [1, 12]: 1.14 h
AUC(0-inf) [1, 13]: 6150 ng·h/mL
AUC(0-t) ([1]; male, ICR, mouse, plasma, po, 5 mg/kg, ICR mice, PO 5 mg/kg, individual animal, read-out: AUC(0-t)): 6070 ng·h/mL
Cmax ([1]; male, ICR, mouse, plasma, po, 5 mg/kg, ICR mice, PO 5 mg/kg, individual animal, read-out: Cmax): 1570 ng/mL
MRT last [1, 13]: 2.34 h
MRT inf [1, 13]: 2.43 h
Tmax [1, 14]: 1 h
half-life [1, 15]: 1.15 h
AUC(0-inf) [1, 16]: 5490 ng·h/mL
AUC(0-t) [1, 17]: 5440 ng·h/mL
Cmax [1, 18]: 1750 ng/mL
MRT last [1, 16]: 2.19 h
MRT inf [1, 16]: 2.25 h
Tmax [1, 19]: 1 h
half-life [1, 20]: 1.08 h
AUC(0-t) [1, 21]: 5440 ng·h/mL
bioavailability ([1]; male, mouse, plasma, ICR mice): 61%
IC50 [2]: 99.8 nM
IC50 (MDM2): 1.41 nM

CCOc1cc(OC)c(-c2nc3c(n2C(C)C)[C@@]2(C(=O)Nc4cc(Cl)ccc42)N(c2cc(Cl)cnc2C)C3=O)cn1 [Example S-96, (S)-6-chloro-5′-(5-chloro-2-methylpyridin-3-yl)-2′-(6-ethoxy-4-methoxypyridin-3-yl)-3′-isopropyl-3′H-spiro[dihydroindole-3,4′-pyrrolo[3,4-d]imidazole]-2,6′(5′H)-dione]
AUC(0-t) [1, 3]: 3109.78 ng·h/mL and 3206.41 ng·h/mL and 6719.85 ng·h/mL
AUC(0-∞) [1, 3]: 3157.25 ng·h/mL and 3250.65 ng·h/mL and 6815.93 ng·h/mL
CL [1, 3]: 10.56 mL/min/kg and 10.25 mL/min/kg and 4.89 mL/min/kg
Cmax [1, 3]: 3353.43 ng/mL and 3438.41 ng/mL
MRT(0-t) [1, 3]: 0.90 h and 2.62 h
MRT(0-∞) [1, 3]: 1.00 h and 0.99 h and 2.99 h
Vz [1, 3]: 0.95 L/kg and 1.42 L/kg
t1/2 [1, 3]: 0.93 h and 1.07 h and 3.36 h
AUC(0-t) [1, 4]: 6327.28 ng·h/mL and 6993.90 ng·h/mL and 13010.63 ng·h/mL
AUC(0-∞) [1, 4]: 6705.00 ng·h/mL and 7471.54 ng·h/mL and 15115.19 ng·h/mL
Cmax [1, 4]: 3921.65 ng/mL and 2400.19 ng/mL and 5236.64 ng/mL
MRT(0-t) [1, 4]: 2.42 h and 2.30 h
MRT(0-∞) [1, 4]: 2.97 h and 3.61 h
Tmax [1, 4]: 0.50 h
t1/2 [1, 4]: 2.06 h and 2.58 h
Cmax [1, 6]: 2980 ng/mL
Tmax [1, 7]: 0.08 h
Vd [1, 5]: 0.85 L/kg
AUC(0-inf) [1, 8]: 4410 ng·h/mL
clearance [1, 8]: 8.57 mL/min/kg
AUC(0-t) [1, 9]: 4350 ng·h/mL
Cmax [1, 10]: 3260 ng/mL
MRT last [1, 8]: 1.47 h
MRT inf [1, 8]: 1.66 h
Tmax [1, 11]: 0.083 h
Vd [1, 8]: 1.07 L/kg
half-life [1, 12]: 1.79 h
MRT last [1, 13]: 1.66 h
MRT inf [1, 13]: 2.15 h
Tmax [1, 14]: 0.25 h
half-life [1, 15]: 1.69 h
AUC(0-inf) [1, 16]: 9760 ng·h/mL
AUC(0-t) [1, 17]: 8780 ng·h/mL
Cmax [1, 18]: 3850 ng/mL
MRT last [1, 16]: 2.13 h
MRT inf [1, 16]: 2.91 h
Tmax [1, 19]: 0.42 h
half-life [1, 20]: 2.11 h
AUC(0-t) [1, 21]: 8780 ng·h/mL
half-life ([1]; male, ICR, mouse, plasma, po, 5 mg/kg, oral intragastric administration 5 mg/kg, read-out: half-life (converted)): 2.11 h
bioavailability ([1]; male, mouse, plasma, ICR mice): 80.8%
IC50 [2]: 25.3 nM
IC50 (MDM2): 1.04 nM
